# Experimental data published in patent publication US6066642A, “Dihydropyridine-, pyridine-, benzopyran-4-one- and triazoloquinazoline derivative, their preparation and their use as adenosine receptor antagonists” (priority 1998, dated 2000).
# Key:
# U-937 cells [1] = test: in situ end-labeling of fragmented nuclear DNA (TUNEL), U-937 cells; type: cell-based
# Experimental: (§1) Cells were fixed by immersing slides in 4% methanol-free formaldehyde in PBS at pH 7.4, 4° C., for 25 min. Fixed cells were permeabilized in 0.2% Triton® X-100 in PBS at 4° C. for 5 min. After preincubation with […] Promega equilibration buffer for 10 min at room temperature, the cells were covered with 50 μl TdT incubation buffer and a coverslip and maintained at 37° C. for 60 min inside the dark humidified chamber to protect from dry and direct light. In order to stop the reaction, the coverslip was removed and the slides were immersed in 2×SSC for 15 min at room temperature. The cells were restained by propidium iodide 1 μg/ml in PBS for 15 min. After every step, the cells were rinsed 2-3 times with fresh PBS for 5 min each. Finally, the glass slides were sealed with nail polish. The slides were stored at 4° C. in the dark.
# (§2) The evidence that DNA strand breaks, characteristic of apoptosis, are induced by the A3 antagonists was obtained using in situ end-labelingin-situ of fragmented nuclear DNA by terminal deoxynucleotidyl transferase (TUNEL method, Cooke, H., Trends in Biotech., 10, 23 (1992)), which incorporates a fluorescent label at the 3'-ends. […] In the control cultures and in those treated with 10 nM Cl-IB-MECA alone, spontaneous apoptosis occured in only 5-7% of the cells (Table 17). […] The reversal of antagonist-induced apoptosis by the agonist is similar to that observed for the growth curves, except that both agonist and antagonist were applied at lower concentrations.
# HL-60 cells [2] = test: live cell counting with trypan blue (cell death/proliferation), HL-60 cells; type: cell-based; conditions: antagonist 0.5 μM plus 0.01 or 1.0 μM Cl-IB-MECA
# Experimental: (§3) The HL-60 cells were maintained in RPMI 1640 supplmented with 10% fetal calf serum, 100 units/ml penicillin, […] streptomycin and 2 mM L-glutamine. The cells were split every third day, and 2 days before each experiment cultures were diluted to 2×10^5 cells/ml. For analysis of DNA content, aliquots of 2 ml were placed into 12-well flat-bottomed plates (Costar, Cambridge, Mass., U.S.A.) containing 2~6 μl test-compound solutions at defined concentrations or 6 μl DMSO (diluting medium). Live cell counting was carried out using 0.1% trypan blue.
# (§4) In the latter assay, cell death was studied in HL-60 cells (FIGS. 11A-B) and in U-937 cells (FIGS. 11C-D) over a time course of 9 days. Cells in culture receiving no drug treatment proliferated geometrically until nearly the end of the experiment.
# HL-60 cells [3] = test: in situ end-labeling of fragmented nuclear DNA (TUNEL), HL-60 cells; type: cell-based
# Experimental: as §1, §2
# Female Mongolian gerbils = test: bilateral carotid occlusion (stroke) in gerbils, survival and intact neurons; type: in vivo, Mongolian gerbil; conditions: for survival rate after ischemia: 100 μg/kg 15 min after occlusion; for intact neurons: 100 μg/kg
# Experimental: Control gerbils were injected with saline. The survival of the animals was followed as a function of time after ischemia.
# The number of intact neurons was also counted.
# [4] = tested on: bak protein in HL-60 cells; test: expression of apoptosis-inducing protein bak by immunofluorescence, HL-60 cells; type: cell-based; conditions: 24 hours
# Experimental: (§5) Cells were fixed as following steps: 10 min with 1% formalin in PBS, 5 min with […] methanol and 2 min with ice cold acetone, then permebilized with 0.1% Nonidet P-40 for 20 min. After the preparation, the specimens were incubated step by step: 10% goat serum in PBS for 20 min, mouse monoclonal anti-bak antibody (5 μg/ml PBS-BSA) for 60 min, Rhodamine (TRITC)-conjugated AffiniPure Goat Anti-mouse IgG (H+L) in PBS-BSA for 60 min. The specimens were washed 3-5 times with PBS after every step. The glass slides were stored at 4° C. in the dark.
# (§6) The mechanism of the apoptosis observed in response to either A3 agonists was investigated.
# [5] = tested on: bak protein in U-937 cells; test: expression of apoptosis-inducing protein bak by immunofluorescence, U-937 cells; type: cell-based; conditions: 24 hours
# Experimental: as §5, §6
# rabbit lung = test: bronchoconstriction / dynamic compliance (Cdyn) in allergic rabbits; type: in vivo, New Zealand white rabbit; conditions: antagonist 10^-5 M, 2 minute aerosol, co-administered with agonist
# Experimental: New Zealand white pasteurella free rabbit litter mates were exposed to A3 adenosine agonist APNEA, IB-MECA, or Cl-IB-MECA and the percent change in dynamic compliance (Cdyn) was measured as a function of the adenosine dose using known procedures. […] Allergy was induced in the rabbits using dust mites.
# The antagonist was administered at a constant dose of 10^-5 M through a 2 minute aerosilization, followed by a 15 minute wait before the measurement of dynamic compliance.
# U-937 cells [6] = test: live cell counting with trypan blue (cell death/proliferation), U-937 cells; type: cell-based; conditions: antagonist 0.5 μM plus 0.01 or 1.0 μM Cl-IB-MECA
# Experimental: as §3, §4
# A2a receptors = molecular target: T1, A2a receptors (Rattus norvegicus, UniProt P30543); test: radioligand binding, displacement of specific [3H]CGS 21680 binding in rat striatal membranes; conditions: Table 11; 10^-4 M; read-out: displacement of specific binding rA2A
# T1 construct: Displacement of specific [^3 H]; from tissue; host or cells: rat striatal membranes
# Experimental: ^b Displacement of specific [^3 H]
# or as a percentage of specific binding displaced at 100 μM.
# [7] = Table 17, antagonist 50 nM plus Cl-IB-MECA 10 nM, 48 hour
# [8] = Table 17, antagonist 50 nM, 48 hour
# T1 sequence (P30543 whole entry): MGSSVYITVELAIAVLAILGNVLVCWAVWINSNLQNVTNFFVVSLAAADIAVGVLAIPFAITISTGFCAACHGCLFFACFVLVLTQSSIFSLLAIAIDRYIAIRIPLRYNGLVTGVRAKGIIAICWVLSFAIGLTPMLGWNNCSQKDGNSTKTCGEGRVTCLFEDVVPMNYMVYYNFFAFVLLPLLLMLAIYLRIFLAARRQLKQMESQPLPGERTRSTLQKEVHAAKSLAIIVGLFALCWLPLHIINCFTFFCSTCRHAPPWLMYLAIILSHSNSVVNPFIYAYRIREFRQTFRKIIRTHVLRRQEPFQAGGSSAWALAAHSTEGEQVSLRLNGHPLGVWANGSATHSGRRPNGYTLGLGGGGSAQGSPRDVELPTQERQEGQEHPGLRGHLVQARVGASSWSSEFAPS
smiles,measurement,setting,value
CCOC(=O)C1=C(C)NC(c2ccccc2)=C(C(=O)OCc2ccccc2)C1C#Cc1ccccc1 (stereo not shown) [Compound 101],"fluorescent labeling of apoptotic cells, U-937","U-937 cells [1]; 50 nM, 24 h, approximately",30-40%
same,"Percentage of apoptotic cells, U937, + Cl-IB-MECA",U-937 cells [1]; [7],10.4 Percentage
same,"Percentage of apoptotic cells, U937",U-937 cells [1]; [8],27.3 Percentage
same,"growth curve with A3 antagonist plus Cl-IB-MECA, HL-60",HL-60 cells [2],the growth curves were nearly coincident with control curves
same,"fluorescent labeling of apoptotic cells, HL-60","HL-60 cells [3]; 50 nM, 24 h, approximately",30-40%
same,"Percentage of apoptotic cells, HL-60, + Cl-IB-MECA",HL-60 cells [3]; [7],11.6 Percentage
same,"Percentage of apoptotic cells, HL-60",HL-60 cells [3]; [8],39.7 Percentage
same,survival rate after ischemia,Female Mongolian gerbils; after 7 days,90%
same,survival rate after ischemia,Female Mongolian gerbils; after 90 days,80%
same,intact neurons,Female Mongolian gerbils; after 7 days,75%
same,intact neurons,Female Mongolian gerbils; after 90 days,90%
same,"bak labeling, HL-60",[4],present
same,"bak labeling, U-937",[5],present
same,percent change in dynamic compliance (Cdyn),rabbit lung,much reduced
same,"growth curve with A3 antagonist plus Cl-IB-MECA, U-937",U-937 cells [6],the growth curves were nearly coincident with control curves
same,inhibition at 100 µM,A2a receptors,< 10%
